Data as given in US20240216444A1, “DESIGNED BACTERIAL COMPOSITIONS” (Seres Therapeutics, Inc., priority 2015, published 2024).

Tests used:
[1] = SCFA profile of bacterial culture supernatants by GC-MS; conditions: GC-MS of culture supernatants
Text: The same bacterial culture supernatants used for HDAC inhibition assays described supra were submitted to GC-MS analysis to determine which SCFAs underlie the observed inhibition of HDAC. The method employed (MSOmics, Denmark) measures formate, acetate, propionate, butyrate, isobutyrate (2-methyl-propionate), isovalerate (3-methyl-butyrate), valerate (pentanoate), 4-methyl-pentanoate, caproate (hexanoate), and heptanoate. […] Numbers in Table 11 indicate detected SCFA concentration. B=butyrate; P=propionate; IB=isobutyrate, and IV=isovalerate.

[2] = tested on: HDAC enzymes (HeLa nuclear extract); assay: HDAC inhibition activity in supernatants of cultures grown in different carbon sources; conditions: 25% HDAC inhibition as cut off
Description: To determine whether the HDAC inhibition was affected by the type and level of carbon source available to a bacterial species, HDAC inhibition by supernatants derived from a selection of bacterial species used in DBCs was determined. In these experiments, bacteria were grown in a variety of carbon sources including mono-, di-, polysaccharides, and porcine mucine. Briefly, 600 μL bacterial cultures in peptone/yeast extract medium (PY) supplemented with 0.5% of the selected carbon sources were inoculated in 96 deep well plates, grown for 4 days, then the microbial cells were pelleted by centrifugation, and 15 μL of the culture medium (supernatant) was used for the HDAC assay with HeLa nuclear extract as described above. Because HDAC activity is reduced at low pH (Latham et al. 2012 Nucl Acid Res 40:4794-803) and the microbial cultures had pH as low as 5, to ensure that the final pH of the assay was not reduced by the addition of supernatant, 10 μL of a 1M Tris pH 8 solution was added per well to bring the final Tris buffer concentration to 75 mM. Thus, assays were performed with 15 μL supernatant, 10 μL 1M Tris pH 8, 25 μL of assay buffer and 50 μL of diluted HeLa nuclear extract, which were preincubated for 30 minutes prior to the addition of developing reagent. Luminescence was measured after 30 minutes.

[3] = tested on: C. difficile carbon sources; assay: Carbon source utilization, 87 carbon sources in three base media, OD600 and acid production (Example 3B); type: cell-based; set-up: key: “+” and “w” refer to “positive” and “weak” utilization of the carbon source, respectively; “+” and “w” refer to “positive” and “weak” utilization of the carbon source, respectively
Text: Three C. difficile strains and 12 non-C. difficile bacterial strains were profiled using a panel of carbon sources. As used herein, unless otherwise indicated, carbon sources includes all sources tested as growth substrates in the experiments herein. The three C. difficile strains were Clostridium difficile ATCC 9689, Clostridium difficile ATCC 43593, and Clostridium difficile ATCC 43255, all of which are available from the American Type Culture Collection (ATCC).
Growth of the strains was tested on 87 different carbon sources in a 96-well plate format. The panel contained 34 carbon sources reported to be utilized by C. difficile in the literature (Hafiz and Oakley. 1976 J Med Microbiol 9:129-36; Wilson and Perini. 1988 Infection and Immunity 56:2610-14; Bergey and Holt. Bergey's Manual of Determinative Bacteriology. Baltimore: Williams & Wilkins, 1994; Sebaihia et al. 2006 Nature Genetics 38:779-786) including amino acids, mono-, di-, tri- and polysaccharides, glucoside and sugar alcohols. Carbon sources were added at 0.5% into three different base media (Base medium 1 SSNC composition: beef extract 1 g/L, yeast extract 2 g/L, bacto soytone 6 g/L, NaCl 4 g/L, KH2PO4 5.44 g/L, MgSO4 2 mM, CaCl2 1 mM, MnCl2 0.1 mM, cysteine hydrochloride 0.25 g/L, hemin 10 mg/L, menadione 1 mg/L, MOPS 6.3 g/L, pH 7; Base medium 2 SPOSCR composition: beef extract 1 g/L, yeast extract 2 g/L, bacto soytone 6 g/L, NaCl 4 g/L, KH2PO4 5.44 g/L, MgSO4 2 mM, CaCl2) 1 mM, MnCl2 0.1 mM, cysteine hydrochloride 0.25 g/L, hemin 10 mg/L, menadione 1 mg/L, MOPS 8.4 g/L, NaHCO3 0.4%, pH 7; Base medium 3 YCFA: casitone 10 g/L, yeast extract 2.5 g/L, cysteine hydrochloride 1 g/L, hemin 10 mg/L, ATCC vitamin solution 10 mL/L, ATCC trace element solution 10 mL/L, K2HPO4 0.45 g/L, KH2PO4 0.45 g/L, (NH4)2SO4 0.9 g/L, MgSO4×7H2O 90 mg/L, CaCl2) 90 mg/L, acetic acid 33 mM, propionic acid 9 mM, isobutyric acid 1 mM, isovaleric acid 1 mM, valeric acid 1 mM, pH 7).
Positive growth was scored by measuring optical density at 600 nm and comparing it to growth in base medium without an added carbon source. For two, base media acid production was also scored by measuring optical density at 558 nm of pH-indicator phenol red mixed with spent medium from each culture.

[4] = tested on: 7α-dehydroxylation of cholic acid and chenodeoxycholic acid; assay: LC-MS screen for 7α-dehydroxylation (7α-OH) activity; type: biochemical; conditions: LC-MS
[5] = tested on: bile salt hydrolase (BSH) activity on conjugated bile acids (gCA, tCA, gCDCA, tCDCA); assay: Bile salt hydrolase (BSH) activity screen using TLC; type: biochemical
[6] = tested on: HSDH activity (7-, 3- or 12-hydroxyl groups) on cholic, chenodeoxycholic, deoxycholic and lithocholic acid; assay: LC-MS screen for hydroxysteroid dehydrogenase (HSDH) activity; type: biochemical; conditions: LC-MS
[7] = tested on: bile salt hydrolase (BSH) activity on conjugated bile acids; assay: LC-MS screen for bile salt hydrolase (BSH) activity
Description: To conduct the assay, briefly, bacteria were grown on permissive agar media plates for 24 to 48 hours to generate sufficient biomass to carry out assays. The bacterial lawns were resuspended in PBS to create a homogenous suspension that was then used for the BSH assay. To assay for BSH activity, bacterial suspensions were incubated with two separate mixtures of four distinct conjugated bile acids, each at concentration of 150 μg/ml, for 4 hours at 37° C. under anaerobic conditions. The reaction mixture was then extracted with an equal volume of acetonitrile, spun down to pellet bacteria and the supernatant filtered through a 0.2 μM filter to generate a sample for LC-MS analysis. Bile acids were determined using an Agilent 1260 HPLC coupled to a Bruker Compact qTOF MS. Samples were run on a bidentate C18 column using an acetonitrile:water buffer system to separate bile acids which were then ionized in negative mode and identified using a qTOF-MS. BSH activity was determined by the formation of deconjugated bile acid products that were verified by comparison to known standards and quantified, if necessary, using standard curves.

Question: Which SCFAs produced [1] does the source give for Clostridium glycolicum here?
Answer: Its SCFAs produced is “produced isovalerate, isobutyrate and propionate”.

Question: What about the “HDAC inhibition when alternative nutrient sources are tested” value [2] of the same substance?
Answer: Its value is “positive”.

Question: And the “utilization of carbon source Citrus pectin” value ([3]; Citrus pectin)?
Answer: The value was “+”.

Question: What about the “utilization of carbon source NAG” value ([3]; NAG (N-acetylglucosamine)) of the same substance?
Answer: The value was “+”.

Question: What about the “utilization of carbon source alanine” value ([3]; alanine) of the same substance?
Answer: The value was “w”.

Question: What about the “utilization of carbon source arginie” value ([3]; arginie) of the same substance?
Answer: The value was “w”.

Question: What about the “utilization of carbon source aspartic acid” value ([3]; aspartic acid) of the same substance?
Answer: The value was “+”.

Question: And the “utilization of carbon source formate” value ([3]; formate)?
Answer: Its value is “+”.

Question: And the “utilization of carbon source fructose” value ([3]; fructose)?
Answer: The value was “+”.

Question: And the “utilization of carbon source glucose” value ([3]; glucose)?
Answer: The value was “+”.

Question: What about the “utilization of carbon source glycogen” value ([3]; glycogen) of the same substance?
Answer: Its value is “w”.

Question: What about the “utilization of carbon source guar” value ([3]; guar) of the same substance?
Answer: Its value is “w”.

Question: And the “utilization of carbon source isoleucine” value ([3]; isoleucine)?
Answer: Its value is “+”.

Question: What about the “utilization of carbon source leucine” value ([3]; leucine) of the same substance?
Answer: The value was “+”.

Question: What about the “utilization of carbon source ornithine” value ([3]; ornithine) of the same substance?
Answer: The value was “w”.

Question: What about the “utilization of carbon source polygalacturonate” value ([3]; polygalacturonate) of the same substance?
Answer: The value was “+”.

Question: What about the “utilization of carbon source propanediol” value ([3]; propanediol) of the same substance?
Answer: The value was “w”.

Question: What about the “utilization of carbon source ribose” value ([3]; ribose) of the same substance?
Answer: Its value is “+”.

Question: And the “utilization of carbon source serine” value ([3]; serine)?
Answer: The value was “+”.

Question: And the “utilization of carbon source sialic acid” value ([3]; sialic acid)?
Answer: The value was “w”.

Question: What about the “utilization of carbon source threonine” value ([3]; threonine) of the same substance?
Answer: The value was “+”.

Question: And the “utilization of carbon source tryptophan” value ([3]; tryptophan)?
Answer: The value was “+”.

Question: And the “utilization of carbon source valine” value ([3]; valine)?
Answer: Its value is “+”.

Question: What about the “utilization of carbon source α-ketoglutarate” value ([3]; α-ketoglutarate) of the same substance?
Answer: The value was “+”.

Question: And the “7a Dehydrox CA” value ([4]; substrate CA)?
Answer: The value was “−”.

Question: What about the “7a Dehydrox CDCA” value ([4]; substrate CDCA) of the same substance?
Answer: The value was “−”.

Question: And the “BSH activity on gCDCA by TLC” value [5]?
Answer: The value was “no BSH activity”.

Question: What about the indole test (12 strains, eight carbon sources) of the same substance?
Answer: Its indole test is “positive”.

Question: What about the “colour of culture in indole test” value (F. plautii: each of the 8 carbon sources, C. glycolicum: all C-sources except glucose, pectin, FOS/inulin) of the same substance?
Answer: The value was “turned red”.

Question: What about the “HSDH 3a” value [6] of the same substance?
Answer: Its value is “+ (‘+’ indicates greater than 50-fold increase in levels of product bile acid, suggesting strong activity)”.

Question: And the “HSDH 7a” value [6]?
Answer: The value was “+ (‘+’ indicates greater than 50-fold increase in levels of product bile acid, suggesting strong activity)”.

Question: What about the “HSDH 12a” value [6] of the same substance?
Answer: The value was “−”.

Question: And the “BSH gCA” value ([7]; substrate gCA)?
Answer: Its value is “+ (‘+’ indicates greater than 50-fold increase in levels of product bile acid, suggesting strong activity)”.

Question: What about the “BSH gCDCA” value ([7]; substrate gCDCA) of the same substance?
Answer: Its value is “+ (‘+’ indicates greater than 50-fold increase in levels of product bile acid, suggesting strong activity)”.

Question: And the “BSH t-aMCA” value ([7]; substrate t-aMCA)?
Answer: Its value is “+ (‘+’ indicates greater than 50-fold increase in levels of product bile acid, suggesting strong activity)”.

Question: What about the “BSH t-bMCA” value ([7]; substrate t-bMCA) of the same substance?
Answer: Its value is “+ (‘+’ indicates greater than 50-fold increase in levels of product bile acid, suggesting strong activity)”.

Question: And the “BSH tCA” value ([7]; substrate tCA)?
Answer: Its value is “+ (‘+’ indicates greater than 50-fold increase in levels of product bile acid, suggesting strong activity)”.

Question: What about the “BSH tCDCA” value ([7]; substrate tCDCA) of the same substance?
Answer: The value was “+ (‘+’ indicates greater than 50-fold increase in levels of product bile acid, suggesting strong activity)”.
